This passage reports IC50 results from patent US20090047246A1, “NOVEL INHIBITORS OF HEPATITIS C VIRUS REPLICATION” (InterMune, Inc., priority 2007, published 2009).

What is called IC50 is the point on the concentration scale where inhibition reaches its midpoint.

In this test the target is T1, HCV NS3 helicase (Hepatitis C virus genotype 1b, UniProt P26663).
T1 construct: full-length NS3 (1-631), purified at Array BioPharma
Briefly: HCV Helicase Prompt FRET Assay (Example A). The format is biochemical. The settings on record: HCV NS3 helicase; tables do not say whether Example A or Example B assay; read-out: IC50 Activity. As for the experimental part: Test compounds were diluted to 2.5 mM by adding 6 uL of a 10 mM solution of the compound to 18 uL of DMSO in a 384-well Costar polypropylene plate. Serial dilutions (2.5×) were performed in the plate using DMSO as the diluent. 1 ul of solution was transferred from each well to a new 384-well Costar polypropylene plate.
A 2× mixture was prepared containing 100 nM helicase substrate, 500 nM helicase capture strand (CS), and 600 μM ATP by diluting stock solutions with assay buffer consisting of 25 mM MOPS, pH 7.0, and 1.5 mM MgCl2, 0.005% (v/v) Triton X-100. Stock helicase substrate was prepared by annealing a FAM-labeled oligonucleotide to a BHQ-1 labeled oligonucleotide, which were both custom synthesized and HPLC-purified at Biosearch Technologies. The FAM-labeled and BHQ-labeled oligonucleotide had the following sequences:
The helicase capture strand was custom synthesized and purified at Integrated DNA Technologies. The helicase capture strand had the following sequence:
The ATP solution was prepared in MilliQ water, pH adjusted to approximately 7 with NaOH. ATP powder was obtained from Sigma (A-7699). The concentration was determined via A260 (ext. coeff=15,400 M^−1cm^−1).
11.5 μL of assay buffer was added to all wells of the plate containing luL of test compound. 5 μL of the Compound/assay buffer mixture was added to a black polystyrene 384-well Proxiplate. A 4× Enzyme solution was prepared by diluting enzyme stock containing full-length NS3 (1-631), purified at Array BioPharma, with assay buffer. 5 μL of the 4× Enzyme solution was added to the Proxiplate and incubated for 5 minutes (for control wells lacking enzyme, assay buffer was used instead). 10 μL of 2× substrate/CS/ATP mixture was then added to all wells of Proxiplate. The final assay conditions included 50 nM Substrate, 250 nM Capture Strand, 300 μM ATP, 5 or 6 nM Enzyme, and 2% (v/v) DMSO. The reaction proceeded for 70 cycles (˜30 min.) on an Envision at room temperature. The plate was read using the Envision (top mirror=FITC; Excitation filter=FITC 485; Emission filter=FITC 535). The fluorescence intensity was recorded for a total of 30 minutes. The initial rates of the reactions was calculated and used to calculate IC50 values. The IC50 curve fitting was performed using either a 4-parameter or 5-parameter logistic equation.

SMILES strings stand for the structures.

T1 sequence (P26663 1027-1657): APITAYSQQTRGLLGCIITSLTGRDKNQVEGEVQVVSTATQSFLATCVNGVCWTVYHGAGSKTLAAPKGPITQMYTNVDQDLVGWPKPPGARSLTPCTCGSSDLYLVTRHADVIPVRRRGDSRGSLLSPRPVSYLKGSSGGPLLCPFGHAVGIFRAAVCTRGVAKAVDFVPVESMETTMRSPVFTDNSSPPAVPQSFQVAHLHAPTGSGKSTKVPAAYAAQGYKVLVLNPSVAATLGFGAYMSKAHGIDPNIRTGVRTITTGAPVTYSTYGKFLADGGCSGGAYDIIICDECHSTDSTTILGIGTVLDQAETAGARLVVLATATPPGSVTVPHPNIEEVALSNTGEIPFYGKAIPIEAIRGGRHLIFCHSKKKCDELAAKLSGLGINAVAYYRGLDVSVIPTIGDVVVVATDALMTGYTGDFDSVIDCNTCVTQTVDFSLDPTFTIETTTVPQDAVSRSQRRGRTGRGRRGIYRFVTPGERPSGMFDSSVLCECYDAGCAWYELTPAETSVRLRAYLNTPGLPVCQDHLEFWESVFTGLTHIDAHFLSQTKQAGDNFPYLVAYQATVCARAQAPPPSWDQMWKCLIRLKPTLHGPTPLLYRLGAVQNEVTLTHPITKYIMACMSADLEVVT

Consider `O=C(O)Cc1cn(-c2ccc(NC(=O)Cc3ccsc3)cc2)c2ccccc12` [Example 164], for which the IC50 was 10 to 50 µM.
As for `CCN(Cc1ccccc1)c1ccc(-n2cc(CC(=O)OC)c3ccccc32)cc1` [Example 165], the figure is 10 to 50 µM; as for `CCN(Cc1ccccc1)c1ccc(-n2cc(CC(=O)O)c3ccccc32)cc1` [Example 166], under 10 µM.
For the compound `CC(C)N(Cc1ccccc1)c1ccc(-n2cc(CC(=O)O)c3ccccc32)cc1` [Example 167], the IC50 was under 10 µM.
As for `O=C(O)Cc1cn(-c2ccc(N(CCO)Cc3ccccc3)cc2)c2ccccc12` [Example 168], the figure is 10 to 50 µM; as for `O=C(O)Cc1cn(-c2ccc(N(Cc3ccccc3)Cc3ccccc3)cc2)c2ccccc12` [Example 169], under 10 µM; as for `CCCN(Cc1ccccc1)c1ccc(-n2cc(CC(=O)O)c3ccccc32)cc1` [Example 170], 10 to 50 µM.
For the compound `CCC(C)N(Cc1ccccc1)c1ccc(-n2cc(CC(=O)O)c3ccccc32)cc1` (stereo not shown) [Example 171], the IC50 is under 10 µM.
With `CC(CO)N(Cc1ccccc1)c1ccc(-n2cc(CC(=O)O)c3ccccc32)cc1` (stereo not shown) [Example 172] the figure was under 10 µM; with `Cc1cc(NCc2ccccc2)ccc1-n1cc(CC(=O)O)c2ccccc21` [Example 173], 10 to 50 µM.
With `CCN(Cc1ccccc1)c1ccc(-n2cc(CC(=O)O)c3ccccc32)c(C)c1` [Example 174] the figure was under 10 µM; with `CCN(Cc1ccccc1)c1ccc(-n2nc(CC(=O)O)c3ccccc32)c(C)c1` [Example 175], 10 to 50 µM.
Regarding `Cc1cccc(CN(C)c2ccc(-n3cc(CC(=O)O)c4ccccc43)cc2)c1` [Example 176], the IC50 was under 10 µM.
As for `COc1cccc(CN(C)c2ccc(-n3cc(CC(=O)O)c4ccccc43)cc2)c1` [Example 177], the figure is under 10 µM; as for `CN(Cc1cccc(F)c1)c1ccc(-n2cc(CC(=O)O)c3ccccc32)cc1` [Example 178], under 10 µM.
As for `CN(Cc1cccc(Cl)c1)c1ccc(-n2cc(CC(=O)O)c3ccccc32)cc1` [Example 179], the figure is under 10 µM; as for `CN(Cc1cccnc1)c1ccc(-n2cc(CC(=O)O)c3ccccc32)cc1` [Example 180], 10 to 50 µM.
As for `Cc1ccccc1CN(C)c1ccc(-n2cc(CC(=O)O)c3ccccc32)cc1` [Example 181], the figure is under 10 µM; as for `CN(Cc1ccccc1F)c1ccc(-n2cc(CC(=O)O)c3ccccc32)cc1` [Example 182], under 10 µM; as for `CCCNC(=O)Cc1cn(Cc2cccc(OCc3ccccc3)c2)c2ccc(Br)cc12` [Example 183], 10 to 50 µM.
In the case of `O=C(Cc1cn(Cc2cccc(CCc3ccccc3)c2)c2ccc(Br)cc12)N1CCCC1` [Example 184], the IC50 lay within 10 to 50 µM.
With `O=C(Cc1cn(Cc2cccc(OCc3ccccc3)c2)c2ccc(Br)cc12)NCC1CC1` [Example 185] the figure was 10 to 50 µM; with `CCNC(=O)Cc1cn(Cc2cccc(OCc3ccccc3)c2)c2ccc(OCc3ccccc3)cc12` [Example 186], 10 to 50 µM.
As for `CC(C)CNC(=O)Cc1cn(Cc2cccc(OCc3ccccc3)c2)c2ccc(OCc3ccccc3)cc12` [Example 187], the figure is 10 to 50 µM; as for `O=C(Cc1cn(Cc2cccc(OCc3ccccc3)c2)c2ccc(OCc3ccccc3)cc12)N1CCCCC1` [Example 188], 10 to 50 µM.
For the compound `O=C(Cc1cn(Cc2cccc(OCc3ccccc3)c2)c2ccc(OCc3ccccc3)cc12)N1CCCC1` [Example 189], the IC50 lay in the range of 10 to 50 µM.
With `O=C(Cc1cn(Cc2cccc(OCc3ccccc3)c2)c2ccc(OCc3ccccc3)cc12)NCC1CC1` [Example 190] the figure was 10 to 50 µM; with `CC1CCN(C(=O)Cc2cn(Cc3cccc(OCc4ccccc4)c3)c3ccc(OCc4ccccc4)cc23)C1` (stereo not shown) [Example 191], 10 to 50 µM; with `CS(=O)(=O)NC(=O)Cc1cn(Cc2cccc(OCc3ccccc3)c2)c2ccc(OCc3ccccc3)cc12` [Example 192], under 10 µM.
As for `CCS(=O)(=O)NC(=O)Cc1cn(Cc2cccc(OCc3ccccc3)c2)c2ccc(OCc3ccccc3)cc12` [Example 193], the figure is under 10 µM.
Turning to `O=C(Cc1cn(Cc2cccc(OCc3ccccc3)c2)c2ccc(OCc3ccccc3)cc12)NS(=O)(=O)C1CC1` [Example 194], the IC50 is under 10 µM.
As for `O=C(Cc1cn(Cc2cccc(OCc3ccccc3)c2)c2ccc(OCc3ccccc3)cc12)NS(=O)(=O)c1ccccc1` [Example 195], the figure is under 10 µM; as for `O=C(NS(=O)(=O)C1CC1)c1cn(Cc2csc3ccc(Cl)cc23)c2ccccc12` [Example 196], 10 to 50 µM.
With `CCS(=O)(=O)NC(=O)Cc1cn(Cc2csc3ccc(Cl)cc23)c2ccccc12` [Example 197] the figure was 10 to 50 µM; with `O=C(Cc1cn(Cc2csc3ccc(Cl)cc23)c2ccccc12)NS(=O)(=O)C1CC1` [Example 198], 10 to 50 µM.
In the case of `O=C(Cc1cn(Cc2csc3ccc(Cl)cc23)c2ccccc12)NS(=O)(=O)c1ccccc1` [Example 199], the IC50 is 10 to 50 µM.
Turning to `NC(=O)Cc1c(-c2ccccc2)n(Cc2csc3ccc(Cl)cc23)c2ccccc12` [Example 200], the IC50 lay in the range of 10 to 50 µM.
As to `CSc1ccc2c(c1)c(CC(N)=O)cn2Cc1cccc(OCc2ccccc2)c1` [Example 201], the IC50 was under 10 µM.
As for `Clc1ccc2scc(Cn3cc(Cc4nnn[nH]4)c4ccccc43)c2c1` [Example 202], the figure is under 10 µM; as for `c1ccc(-c2ccccc2Cn2cc(Cc3nnn[nH]3)c3ccccc32)cc1` [Example 203], under 10 µM; as for `Clc1ccc2scc(Cn3c(-c4ccccc4)c(Cc4nnn[nH]4)c4ccccc43)c2c1` [Example 204], under 10 µM.
With `O=C(Cn1cc(Cc2nnn[nH]2)c2ccccc21)N1CCN(Cc2ccccc2)CC1` [Example 205] the figure was 10 to 50 µM; with `O=C(Cn1cc(Cc2nnn[nH]2)c2ccccc21)N1CCC(Cc2ccccc2)CC1` [Example 206], 10 to 50 µM.
With `O=C(NCc1ccc2c(c1)c(Cc1nn[nH]n1)cn2Cc1csc2ccc(Cl)cc12)OCc1ccccc1` [Example 207] the figure was under 10 µM; with `CC(C)(C)OC(=O)NCc1ccc2c(c1)c(Cc1nn[nH]n1)cn2Cc1csc2ccc(Cl)cc12` [Example 208], under 10 µM; with `N#CCc1cn(Cc2csc3ccc(Cl)cc23)c2ccc(CNS(=O)(=O)c3ccccc3)cc12` [Example 209], 10 to 50 µM.
For the compound `O=S(=O)(NCc1ccc2c(c1)c(Cc1nn[nH]n1)cn2Cc1csc2ccc(Cl)cc12)c1ccccc1` [Example 210], the IC50 is under 10 µM.
With `N#CCc1cn(Cc2csc3ccc(Cl)cc23)c2ccc(CNC(=O)c3ccccc3)cc12` [Example 211] the figure was 10 to 50 µM.
With `Oc1nnc(Cc2cn(Cc3csc4ccc(Cl)cc34)c3ccccc23)[nH]1` [Example 212] the figure was 10 to 50 µM.
With `Oc1cc(Cc2cn(Cc3csc4ccc(Cl)cc34)c3ccccc23)n[nH]1` [Example 213] the figure was 10 to 50 µM; with `O=C(Cn1cc(Cc2nnn[nH]2)c2ccccc21)c1ccccc1` [Example 214], 10 to 50 µM.
In the case of `CC(c1nnn[nH]1)c1cn(Cc2csc3ccc(Cl)cc23)c2ccccc12` (stereo not shown) [Example 215], the IC50 fell in the range of 10 to 50 µM.
With `CC(C)(c1nnn[nH]1)c1cn(Cc2csc3ccc(Cl)cc23)c2ccccc12` [Example 216] the figure was 10 to 50 µM.
As for `O=C(O)Cc1c(C(=O)c2ccccc2)n(Cc2csc3ccc(Cl)cc23)c2ccccc12` [Example 217], the figure is under 10 µM.
With `O=C(O)Cc1c(C(=O)c2ccc(-c3ccccc3)cc2)n(CC2CC2)c2ccccc12` [Example 218] the figure was under 10 µM; with `O=C(O)Cc1c(C(=O)c2ccc(-c3ccccc3)cc2)n(Cc2ccccc2)c2ccccc12` [Example 219], under 10 µM.
With `O=C(O)Cc1c(C(=O)c2ccc(-c3ccccc3)cc2)n(Cc2csc3ccc(Cl)cc23)c2ccccc12` [Example 220], the IC50 is under 10 µM.
With `O=C(O)Cc1c(C(=O)c2cccc(Oc3ccccc3)c2)n(CC2CC2)c2ccccc12` [Example 221] the figure was under 10 µM; with `O=C(O)Cc1c(C(=O)c2cccc(Oc3ccccc3)c2)n(Cc2ccccc2)c2ccccc12` [Example 222], under 10 µM; with `O=C(O)Cc1c(C(=O)c2ccc(-c3ccccc3)cc2)oc2ccccc12` [Example 223], 10 to 50 µM.
With `O=C(O)Cc1c(C(=O)c2ccc(-c3ccccc3)cc2)sc2ccccc12` [Example 224] the figure was under 10 µM.
